The test system of this test is MCF7. The test is described as follows: Upregulation of cleaved caspase-8 protein expression in human MCF7 cells after 24 hrs by Western blot method. The class given is functional, cell-based. (In general: Immunoblotting shows a protein as a band on a membrane.)

Turning to `Cc1cccc2c(Nc3cccc(-c4nc5c(C(N)=O)cccc5[nH]4)c3)c3ccccc3nc12`, the Activity result is “Dose-dependent effect”.

These data come from ChEMBL document CHEMBL4130375, “Design, synthesis and biological evaluation of 4-amidobenzimidazole acridine derivatives as dual PARP and Topo inhibitors for cancer therapy” (Eur J Med Chem, 2017).
